Biological target: AMPK
Experiment: AMPK activation, enzyme-linked immunosorbent assay
Assay type: biochemical
Conditions: Table 12, compounds of Table 5
Procedure, shortened: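 Read-out: ELISA, used to detect compound-driven activation of AMPK.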

EC50, < 1 µM:
COc1cc(C(=O)NC2CCN(Cc3ccccc3)CC2)ccc1OC1CCN(CCCc2ccccc2)CC1 [Compound 5-7, N-(1-benzylpiperidin-4-yl)-3-methoxy-4-(1-(3-phenylpropyl)piperidin-4-yloxy)benzamide]
O=C(NC1CCN(Cc2ccccc2)CC1)c1ccc(OC2CCN(Cc3ccccc3)CC2)c(Cl)c1 [Compound 5-14, N-(1-benzylpiperidin-4-yl)-4-(1-benzylpiperidin-4-yloxy)-3-chlorobenzamide]
O=C(NC1CCN(Cc2ccccc2)CC1)c1ccc(OC2CCN(Cc3ccc4c(c3)OCCO4)CC2)c(Cl)c1 [Compound 5-15]
CC(C)(C)c1ccc(CN2CCC(Oc3ccc(C(=O)NC4CCN(Cc5ccccc5)CC4)cc3Cl)CC2)cc1 [Compound 5-16, N-(1-benzylpiperidin-4-yl)-4-(1-(4-tert-butylbenzyl)piperidin-4-yloxy)-3-chlorobenzamide]
O=C(NC1CCN(Cc2ccccc2)CC1)c1ccc(OC2CCN(c3ccc(C(F)(F)F)cc3)CC2)c(Cl)c1 [Compound 5-17]
O=C(NC1CCN(Cc2ccccc2)CC1)c1ccc(OC2CCN(C(=O)c3ccc(C(F)(F)F)cc3)CC2)c(Cl)c1 [Compound 5-18, N-(1-benzylpiperidin-4-yl)-3-chloro-4-(1-(4-(trifluoromethyl)benzoyl)piperidin-4-yloxy)benzamide]
O=C(NC1CCN(Cc2ccccc2)CC1)c1ccc(OC2CCN(Cc3ccc(F)cc3)CC2)c(Cl)c1 [Compound 5-19, N-(1-benzylpiperidin-4-yl)-3-chloro-4-(1-(4-fluorobenzyl)piperidin-4-yloxy)benzamide]
CC(C)(C)c1ccc(CN2CCC(Oc3ccc(C(=O)NC4CCN(Cc5ccccc5)CC4)cc3F)CC2)cc1 [Compound 5-20, N-(1-benzylpiperidin-4-yl)-3-fluoro-4-(1-(4-tert-butylbenzyl)piperidin-4-yloxy)benzamide]
O=C(NC1CCN(Cc2ccccc2)CC1)c1ccc(OC2CCN(c3ccc(C(F)(F)F)cc3)CC2)c(F)c1 [Compound 5-23, N-(1-benzylpiperidin-4-yl)-3-fluoro-4-(1-(4-(trifluoromethyl)phenyl)piperidin-4-yloxy)benzamide]
CC(C)(C)OC(=O)N1CCC(NC(=O)c2ccc(OC3CCN(c4ccc(C(F)(F)F)cc4)CC3)c(F)c2)CC1 [Compound 5-26, tert-butyl 4-(3-fluoro-4-(1-(4-(trifluoromethyl)phenyl)piperidin-4-yloxy)benzamido)piperidine-1-carboxylate]
O=C(NC1CCN(Cc2ccc(F)cc2)CC1)c1ccc(OC2CCN(c3ccc(C(F)(F)F)cc3)CC2)c(F)c1 [Compound 5-27, 3-fluoro-N-(1-(4-fluorobenzyl)piperidin-4-yl)-4-(1-(4-(trifluoromethyl)phenyl)piperidin-4-yloxy)benzamide]
O=C(NC1CCN(Cc2ccncc2)CC1)c1ccc(OC2CCN(c3ccc(C(F)(F)F)cc3)CC2)c(F)c1 [Compound 5-28, 3-fluoro-N-(1-(pyridin-4-ylmethyl)piperidin-4-yl)-4-(1-(4-(trifluoromethyl)phenyl)piperidin-4-yloxy)benzamide]
O=C(NC1CCN(Cc2cccnc2)CC1)c1ccc(OC2CCN(c3ccc(C(F)(F)F)cc3)CC2)c(F)c1 [Compound 5-29, 3-fluoro-N-(1-(pyridin-3-ylmethyl)piperidin-4-yl)-4-(1-(4-(trifluoromethyl)phenyl)piperidin-4-yloxy)benzamide]
CC(C)(C)C(=O)N1CCC(NC(=O)c2ccc(OC3CCN(c4ccc(C(F)(F)F)cc4)CC3)c(F)c2)CC1 [Compound 5-30, 3-fluoro-N-(1-pivaloylpiperidin-4-yl)-4-(1-(4-(trifluoromethyl)phenyl)piperidin-4-yloxy)benzamide]
O=C(NC1CCN(C(=O)c2ccc(F)cc2)CC1)c1ccc(OC2CCN(c3ccc(C(F)(F)F)cc3)CC2)c(F)c1 [Compound 5-31, 3-fluoro-N-(1-(4-fluorobenzoyl)piperidin-4-yl)-4-(1-(4-(trifluoromethyl)phenyl)piperidin-4-yloxy)benzamide]
O=C(NC1CCN(Cc2ccccn2)CC1)c1ccc(OC2CCN(c3ccc(C(F)(F)F)cc3)CC2)c(F)c1 [Compound 5-32, 3-fluoro-N-(1-(pyridin-2-ylmethyl)piperidin-4-yl)-4-(1-(4-(trifluoromethyl)phenyl)piperidin-4-yloxy)benzamide]
COC(=O)c1ccc(CN2CCC(NC(=O)c3ccc(OC4CCN(c5ccc(C(F)(F)F)cc5)CC4)c(F)c3)CC2)cc1 [Compound 5-33, methyl 4-((4-(3-fluoro-4-(1-(4-(trifluoromethyl)phenyl)piperidin-4-yloxy)benzamido)piperidin-1-yl)methyl)benzoate]
CC(C)S(=O)(=O)N1CCC(NC(=O)c2ccc(OC3CCN(c4ccc(C(F)(F)F)cc4)CC3)c(F)c2)CC1 [Compound 5-34, 3-fluoro-N-(1-(isopropylsulfonyl)piperidin-4-yl)-4-(1-(4-(trifluoromethyl)phenyl)piperidin-4-yloxy)benzamide]
CC(C)(C)c1ccc(CN2CCC(Oc3ccc(C(=O)NC4CCN(c5ccccc5)CC4)cc3F)CC2)cc1 [Compound 5-36, 4-(1-(4-tert-butylbenzyl)piperidin-4-yloxy)-3-fluoro-N-(1-phenylpiperidin-4-yl)benzamide]
O=C(NC1CCN(Cc2ccccc2)CC1)c1ccc(OC2CCN(Cc3ccncc3)CC2)c(F)c1 [Compound 5-37, N-(1-benzylpiperidin-4-yl)-3-fluoro-4-(1-(pyridin-4-ylmethyl)piperidin-4-yloxy)benzamide]
O=C(NC1CCN(C(=O)c2ccncc2)CC1)c1ccc(OC2CCN(c3ccc(C(F)(F)F)cc3)CC2)c(F)c1 [Compound 5-40, 3-fluoro-N-(1-isonicotinoylpiperidin-4-yl)-4-(1-(4-(trifluoromethyl)phenyl)piperidin-4-yloxy)benzamide]
N#Cc1ccc(CN2CCC(Oc3ccc(C(=O)NC4CCN(Cc5ccccc5)CC4)cc3F)CC2)cc1 [Compound 5-41, N-(1-benzylpiperidin-4-yl)-4-(1-(4-cyanobenzyl)piperidin-4-yloxy)-3-fluorobenzamide]
N#Cc1ccc(CN2CCC(NC(=O)c3ccc(OC4CCN(c5ccc(C(F)(F)F)cc5)CC4)c(F)c3)CC2)cc1 [Compound 5-43, N-(1-(4-cyanobenzyl)piperidin-4-yl)-3-fluoro-4-(1-(4-(trifluoromethyl)phenyl)piperidin-4-yloxy)benzamide]

EC50, 10 to 20 µM:
O=C(NC1CCN(Cc2ccccc2)CC1)c1ccc(OC2CCN(Cc3ccccc3C(F)(F)F)CC2)c(Cl)c1 [Compound 5-24, N-(1-benzylpiperidin-4-yl)-3-chloro-4-(1-(2-(trifluoromethyl)benzyl)piperidin-4-yloxy)benzamide]

EC50, 20 to 50 µM:
COc1cc(C(=O)NC2CCN(Cc3ccccc3)CC2)ccc1OC1CCN(S(C)(=O)=O)CC1 [Compound 5-9, N-(1-benzylpiperidin-4-yl)-3-methoxy-4-(1-(methylsulfonyl)piperidin-4-yloxy)benzamide]
O=C(NC1CCN(Cc2ccccc2)CC1)c1cccc(OC2CCN(Cc3ccccc3)CC2)c1 [Compound 5-13, N-(1-benzylpiperidin-4-yl)-3-(1-benzylpiperidin-4-yloxy)benzamide]

EC50, 1 to 10 µM:
COc1cc(C(=O)NC2CCN(Cc3ccccc3)CC2)ccc1OC1CCN(c2cccs2)CC1 [Compound 5-8, N-(1-benzylpiperidin-4-yl)-3-methoxy-4-(1-(thiophen-2-yl)piperidin-4-yloxy)benzamide]
O=C(NC1CCN(Cc2ccccc2)CC1)c1ccc(OC2CCN(c3cccs3)CC2)c(Cl)c1 [Compound 5-10, N-(1-benzylpiperidin-4-yl)-3-chloro-4-(1-(thiophen-2-yl)piperidin-4-yloxy)benzamide]
O=C(NC1CCN(Cc2ccccc2)CC1)c1ccc(OC2CCN(c3ccco3)CC2)c(Cl)c1 [Compound 5-11, N-(1-benzylpiperidin-4-yl)-3-chloro-4-(1-(furan-2-yl)piperidin-4-yloxy)benzamide]
COc1cc(C(=O)NC2CCN(Cc3ccccc3)CC2)ccc1OC1CCN(c2ccco2)CC1 [Compound 5-12, N-(1-benzylpiperidin-4-yl)-3-methoxy-4-(1-(furan-2-yl)piperidin-4-yloxy)benzamide]
CC(c1ccccc1)N1CCC(Oc2ccc(C(=O)NC3CCN(Cc4ccccc4)CC3)cc2F)CC1 (stereo not drawn) [Compound 5-21, N-(1-benzylpiperidin-4-yl)-3-fluoro-4-(1-(1-phenylethyl)piperidin-4-yloxy)benzamide]
O=C(NC1CCN(Cc2ccccc2)CC1)c1ccc(OC2CCN(C(=O)c3ccc(F)cc3)CC2)c(Cl)c1 [Compound 5-22, N-(1-benzylpiperidin-4-yl)-3-chloro-4-(1-(4-fluorobenzoyl)piperidin-4-yloxy)benzamide]
O=C(O)c1ccc(CN2CCC(NC(=O)c3ccc(OC4CCN(c5ccc(C(F)(F)F)cc5)CC4)c(F)c3)CC2)cc1 [Compound 5-35, 4-((4-(3-fluoro-4-(1-(4-(trifluoromethyl)phenyl)piperidin-4-yloxy)benzamido)piperidin-1-yl)methyl)benzoic acid]
O=C(NC1CCN(Cc2ccccc2)CC1)c1ccc(OC2CCN(Cc3cccnc3)CC2)c(F)c1 [Compound 5-38, N-(1-benzylpiperidin-4-yl)-3-fluoro-4-(1-(pyridin-3-ylmethyl)piperidin-4-yloxy)benzamide]
O=C(NC1CCN(Cc2ccccc2)CC1)c1ccc(OC2CCN(Cc3ccccn3)CC2)c(F)c1 [Compound 5-39, N-(1-benzylpiperidin-4-yl)-3-fluoro-4-(1-(pyridin-2-ylmethyl)piperidin-4-yloxy)benzamide]

EC50, > 100 µM:
O=C(NC1CCN(c2ccccc2)CC1)c1ccc(OC2CCN(c3ccc(C(F)(F)F)cc3)CC2)c(F)c1 [Compound 5-25, 3-fluoro-N-(1-phenylpiperidin-4-yl)-4-(1-(4-(trifluoromethyl)phenyl)piperidin-4-yloxy)benzamide]
